Reference: ChEMBL document CHEMBL2040759, “Design, synthesis and anticancer activity of nitric oxide donating/chalcone hybrids” (2012)

System: UACC-62
Assay: Growth inhibition of human UACC62 cells assessed as cell growth at 10^-5 M after 48 hrs by SRB assay
Assay type: functional
Settings: UACC-62, 48 h, read-out: Activity

Compound: C/C(=N\O)c1ccc(OCC(=O)Nc2ccc(C(=O)/C=C/c3ccc(Cl)cc3)cc2)cc1
- growth at 10 µM: 37.5%
